1 substance from US20180289692A1, “TLR MODULATORS AND METHODS OF USE” (CELGENE CORPORATION, priority 2015, published 2018) can be followed below.

Common to all, as to type: cell-based
One series has as its system mouse macrophages. Nature of the series: TNFα and IL-10 production in mouse macrophages (Raw Blue cells), MagPix. Conditions: 24 hrs. The protocol: Mouse Raw Blue Reporter Cells (Invivogen) were plated in 96-well plates at 50,000 cells/well in DMEM Media supplemented with 10% FBS, 2 mM L-glutamine, 1% Pen/Strep, […] Normacin. […] The supernatant was harvested and tested for TNFα and IL-10 production using MagPix Multi-Plex technology.

In a further series the target is T1, TLR8 (Homo sapiens, UniProt Q9NR97).
T1 construct: host or cells: HEK Blue TLR8 reporter cells (engineered HEK293, NF-κB inducible SEAP)
T1 sequence (Q9NR97 27-1041): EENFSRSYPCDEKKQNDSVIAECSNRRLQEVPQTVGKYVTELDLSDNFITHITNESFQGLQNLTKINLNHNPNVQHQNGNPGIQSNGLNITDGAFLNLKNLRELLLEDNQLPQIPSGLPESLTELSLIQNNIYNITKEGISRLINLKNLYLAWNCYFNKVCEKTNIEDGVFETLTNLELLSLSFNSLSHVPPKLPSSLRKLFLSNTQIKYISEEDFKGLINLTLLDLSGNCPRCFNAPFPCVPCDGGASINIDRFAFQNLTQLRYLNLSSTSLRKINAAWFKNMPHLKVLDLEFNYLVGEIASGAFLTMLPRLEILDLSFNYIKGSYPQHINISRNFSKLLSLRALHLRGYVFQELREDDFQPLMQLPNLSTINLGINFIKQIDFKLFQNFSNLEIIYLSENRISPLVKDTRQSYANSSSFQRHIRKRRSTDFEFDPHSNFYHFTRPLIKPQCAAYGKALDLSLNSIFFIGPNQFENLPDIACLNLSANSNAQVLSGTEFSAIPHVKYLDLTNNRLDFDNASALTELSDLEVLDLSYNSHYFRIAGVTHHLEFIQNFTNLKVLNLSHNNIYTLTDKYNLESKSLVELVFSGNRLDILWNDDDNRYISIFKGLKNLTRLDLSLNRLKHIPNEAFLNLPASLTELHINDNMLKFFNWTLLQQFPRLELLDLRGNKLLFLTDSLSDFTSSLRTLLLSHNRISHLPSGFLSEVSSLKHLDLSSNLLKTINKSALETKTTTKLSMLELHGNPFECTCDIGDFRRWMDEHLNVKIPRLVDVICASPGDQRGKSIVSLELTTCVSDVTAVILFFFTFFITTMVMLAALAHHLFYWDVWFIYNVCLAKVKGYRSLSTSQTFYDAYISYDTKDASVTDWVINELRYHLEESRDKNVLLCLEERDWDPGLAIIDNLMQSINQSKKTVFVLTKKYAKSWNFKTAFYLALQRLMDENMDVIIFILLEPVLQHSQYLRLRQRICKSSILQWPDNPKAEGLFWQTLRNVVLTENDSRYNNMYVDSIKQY
As to the kind of experiment: TLR8 activation in HEK Blue TLR8 reporter cell line after lipo-transfection. To be noted: HEK Blue TLR8 reporter cells, Lipofectamine transfection, FIG. 24. The protocol: Briefly, the reporter cells were engineered HEK293 cells that express a TLR8 gene and are specially designed for monitoring activity of NF-kβ inducible SEAP (secreted embryonic alkaline phosphatase). Reporter cells were seeded at a density of around 60000/well in 96 wells plates for 72 hrs. Growth medium was removed and Lipofectamine™ (Life Technologies, Foster City, Calif.) 2000/oligonucleotide complex and agonist was added and incubated for 6 hrs. The complex was removed and Detection Medium was added for 16 hrs of incubation. Optical density of SEAP was measured by spectrophotometer at […]. […] See also, Table 7.

In another series the test system is SMAD7 protein. Nature of the series: SMAD7 protein levels in human pDCs by FACS. Conditions: 24 hrs or 48 h, any indicated concentration, no transfection. As to the method:
PBMC from healthy donors were isolated from Buffy Coat blood (Blood Center of NY) by density-gradient centrifugation over Ficoll-Hypaque (Pharmacia Biotech). The cells were washed with PBS and re-suspended in RPMI-1640 Media with 10% inactivated fetal bovine serum, penicillin (100 U/ml) and streptomycin (100 μg/ml) and 2 mM L-glutamine (complete medium, Life Technologies). PBMC were treated with ODNs for indicated time periods at indicated concentrations, generally between 0.0001 μM and 10 μM, with CD40L plus anti-HisTag antibody, or with a vehicle control (endotoxin-free sterile water control). No transfection reagent was added with the ODNs.
SMAD7 protein levels were determined using standard FACS protocols. PBMCs were incubated on ice in the presence of Fc-Block (BD Pharmingen) for 20 minutes, washed, and incubated with antibodies specific for surface molecules or isotype-matched control mAbs. PECY-7-labeled anti-human CCR6 mAb, and PerCP-Cy5.5 labeled anti-human CD123 mAb were purchased from BD Biosciences. SMAD7 antibody was purchased from Biorbyt, Cambridge, UK. The stained cells were then subjected to FACS (FACSCanto, BD Biosciences) using the FACSDiva software. FACS analysis was performed using FlowJo software. Single, viable cells in the CCR6+CD123+ pDC gates were used for analysis of, e.g., SMAD7 protein levels.

Oligonucleotides are written 5' to 3', each unit as a sugar letter and its base; * is a phosphorothioate linkage, no mark a phosphodiester; rarer units and linkages stand in square brackets, end groups in braces. Plain capitals give the bases only. d = 2'-deoxy (DNA)

Consider “ODN150: 5′-G*G*A*ACAGTTCGTCCAT*G*G*C-3′, PO except * = PS; antisense to p65 of NF-kB mRNA; tested clinically for ulcerative colitis (DNA dG*dG*dA*dAdCdAdGdTdTdCdGdTdCdCdAdT*dG*dG*dC)”, for which the TNFα protein expression entry in the series with mouse macrophages (FIG. 12, COMPOUND (I) up to 10 μM) is reported as “induce”. Besides, the IL-10 protein expression result in the series with mouse macrophages (FIG. 13, COMPOUND (I) up to 10 μM) is on record as “induce”. The TLR8 activation result with TLR8 is listed as “substantially induced”. In addition, the “effect on SMAD7 protein levels” value in the series on SMAD7 protein is on record as “do not affect”.
